Test results taken from patent publication US20250361227A1, “INHIBITORS OF FLI1 AND ERG” (UNIVERSITY OF VIRGINIA PATENT FOUNDATION, priority 2022, published 2025).
Read-outs that look alike come from different tables or passages of the source. Blank lines part the entries; values can stand above or below the molecule they belong to.

Tests used:
[1] = target: T1, ERG isolated Ets domain (ERGu, 289-378) (Homo sapiens, UniProt P11308); assay: Fluorescence polarization DNA binding assay, uninhibited ERG; settings: FP DNA binding, NA = no activity up to 2000 μM, >number = estimate from fit with lower bound
T1 construct: made in house
T1 sequence (P11308 289-378 isoform P11308-1): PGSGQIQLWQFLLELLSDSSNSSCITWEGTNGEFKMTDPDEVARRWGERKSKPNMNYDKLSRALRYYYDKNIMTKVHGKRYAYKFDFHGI
Excerpt: (§1) The constructs of ERG which retain full auto-inhibition were previously delineated (17). Fluorescence polarization-based assays for DNA binding were then developed, which were used for screening. In addition to the auto-inhibited form of ERG, it was important to also have an assay using its Ets domain, i.e., the uninhibited form of the protein, to compare action of compounds. Compounds which are active against the auto-inhibited form of the protein but have little or no effect on the uninhibited form were sought, indicating their binding is mediated by the non-conserved auto-inhibitory modules rather than the highly conserved Ets domain. […] Fragment screening is an alternative approach that has gained a great deal of favor in the pharma industry recently that employs relatively small molecules (22). […] The auto-inhibited construct was screened first with a dose dependent screen of actives with ERGi using fluorescein- and Texas Red-DNA and then the positive hits were counter-screened with the ERG Ets domain, specifically a screen of actives with ERGu, the latter screen serving to remove compounds which bind to the conserved Ets domain or to DNA, which left 26 compounds which inhibit the auto-inhibited construct of ERG binding to DNA but not the uninhibited ERG (the Ets domain) binding to DNA. ERGi is the auto-inhibited construct of ERG (272-388) and ERGu is the uninhibited DNA binding domain construct of ERG (289-378). […] The IC50 of the validated hits was 0.6-7 mM. […] Importantly, chemical shift changes upon compound addition are observed in the ^15N-^1H HSQC NMR spectra of ERG for amino acids located in the auto-inhibitory modules of ERG, indicating they do interact with these regions of the protein. It is critical to also develop assays for other ETS family members to assess the specificity of action of the compounds identified in the screen, so auto-inhibited constructs were expressed and assays were developed for five other ETS family members and assays for additional members of the family were also developed.
(§2) Using a standard medicinal chemistry approach, further optimization of the fragment hits were pursued. The specificity of parent fragments and their optimized derivatives with 5 additional Ets proteins which are representatives of 5 additional sub-families, were evaluated, as shown in Table 2. […] NA in Table 2 represents no activity up to the 2000 μM maximum concentration. >number in Table 2 represents some activity at highest concentrations so data fit with a lower bound to obtain an estimate of IC50.

[2] = target: T2, ELK1 (Homo sapiens, UniProt P19419); assay: Fluorescence polarization DNA binding assay, auto-inhibited ELK1; settings: auto-inhibited construct; NA = no activity up to 2000 μM; >number = estimate from fit with lower bound
T2 sequence (P19419 1-428): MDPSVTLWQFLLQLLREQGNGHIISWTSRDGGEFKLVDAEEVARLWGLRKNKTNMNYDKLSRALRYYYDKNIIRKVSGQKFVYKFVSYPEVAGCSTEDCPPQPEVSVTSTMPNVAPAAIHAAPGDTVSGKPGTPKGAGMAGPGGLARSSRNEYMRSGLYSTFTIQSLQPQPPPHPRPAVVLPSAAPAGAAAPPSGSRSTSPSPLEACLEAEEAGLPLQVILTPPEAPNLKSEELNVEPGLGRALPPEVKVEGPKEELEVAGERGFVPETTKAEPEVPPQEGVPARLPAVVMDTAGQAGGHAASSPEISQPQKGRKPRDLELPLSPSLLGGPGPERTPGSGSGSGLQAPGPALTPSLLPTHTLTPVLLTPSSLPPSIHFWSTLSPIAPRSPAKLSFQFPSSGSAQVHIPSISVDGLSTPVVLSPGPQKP
Excerpt: as §1, §2

[3] = target: T3, ERG auto-inhibited construct (ERGi, 272-388) (Homo sapiens, UniProt P11308); assay: ERGi-DNA fluorescence polarization assay; format: binding
T3 construct: made in house
T3 sequence (P11308 272-388 isoform P11308-1): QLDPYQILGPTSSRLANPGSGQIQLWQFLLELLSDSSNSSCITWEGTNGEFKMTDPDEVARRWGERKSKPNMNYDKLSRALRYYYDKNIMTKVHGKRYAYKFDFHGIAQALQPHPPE
Excerpt: as §1, §2

[4] = target: T4, ETV6 (TEL) (Homo sapiens, UniProt P41212); assay: Fluorescence polarization DNA binding assay, auto-inhibited ETV6; settings: auto-inhibited construct; NA = no activity up to 2000 μM; >number = estimate from fit with lower bound
T4 sequence (P41212 1-452): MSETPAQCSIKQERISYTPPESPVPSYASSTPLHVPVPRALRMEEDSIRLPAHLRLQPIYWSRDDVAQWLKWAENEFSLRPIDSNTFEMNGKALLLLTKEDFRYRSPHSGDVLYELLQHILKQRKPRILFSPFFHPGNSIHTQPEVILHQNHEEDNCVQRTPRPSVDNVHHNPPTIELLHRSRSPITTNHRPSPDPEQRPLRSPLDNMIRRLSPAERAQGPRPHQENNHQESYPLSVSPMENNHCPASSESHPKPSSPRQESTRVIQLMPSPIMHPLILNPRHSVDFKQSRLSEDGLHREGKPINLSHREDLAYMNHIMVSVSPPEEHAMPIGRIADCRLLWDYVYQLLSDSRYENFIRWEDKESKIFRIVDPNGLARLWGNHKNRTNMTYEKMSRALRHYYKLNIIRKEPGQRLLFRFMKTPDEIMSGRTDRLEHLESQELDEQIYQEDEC
Excerpt: as §1, §2

[5] = target: T5, ELF3 (Homo sapiens, UniProt P78545); assay: Fluorescence polarization DNA binding assay, auto-inhibited ELF3; settings: auto-inhibited construct; NA = no activity up to 2000 μM; >number = estimate from fit with lower bound
T5 sequence (P78545 1-371): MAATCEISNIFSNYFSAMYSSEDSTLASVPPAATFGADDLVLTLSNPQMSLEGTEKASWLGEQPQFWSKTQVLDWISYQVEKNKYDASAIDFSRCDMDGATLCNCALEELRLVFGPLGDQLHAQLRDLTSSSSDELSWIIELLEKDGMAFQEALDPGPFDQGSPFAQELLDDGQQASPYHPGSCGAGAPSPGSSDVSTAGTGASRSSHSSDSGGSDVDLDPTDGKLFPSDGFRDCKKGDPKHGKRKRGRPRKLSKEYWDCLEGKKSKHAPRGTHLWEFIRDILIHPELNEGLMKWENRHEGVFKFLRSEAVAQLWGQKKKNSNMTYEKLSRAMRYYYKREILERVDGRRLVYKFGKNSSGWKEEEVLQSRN
Excerpt: as §1, §2

[6] = target: Spi1 (PU.1) (Homo sapiens, UniProt P17947); assay: Fluorescence polarization DNA binding assay, auto-inhibited PU.1; settings: auto-inhibited construct; NA = no activity up to 2000 μM; >number = estimate from fit with lower bound
Excerpt: as §1, §2

[7] = target: T6, Ets1 (Homo sapiens, UniProt P14921); assay: Fluorescence polarization DNA binding assay, auto-inhibited Ets-1; settings: auto-inhibited construct; NA = no activity up to 2000 μM; >number = estimate from fit with lower bound
T6 sequence (P14921 1-441): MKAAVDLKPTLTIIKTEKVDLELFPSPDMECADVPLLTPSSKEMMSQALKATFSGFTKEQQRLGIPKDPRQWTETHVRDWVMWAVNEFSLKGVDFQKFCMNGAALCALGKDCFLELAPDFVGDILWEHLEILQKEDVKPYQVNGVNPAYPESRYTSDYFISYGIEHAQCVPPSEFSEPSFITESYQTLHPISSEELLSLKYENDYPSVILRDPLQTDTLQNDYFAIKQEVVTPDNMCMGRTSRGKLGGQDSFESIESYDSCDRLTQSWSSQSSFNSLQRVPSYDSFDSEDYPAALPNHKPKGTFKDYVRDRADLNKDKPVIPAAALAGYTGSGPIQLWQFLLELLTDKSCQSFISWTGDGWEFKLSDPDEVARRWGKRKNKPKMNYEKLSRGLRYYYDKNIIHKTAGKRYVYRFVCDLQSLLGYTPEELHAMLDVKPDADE
Excerpt: as §1, §2

[8] = target: DNA; settings: ITC, ERG construct binding to DNA; ±SE in cell beside; cited from earlier work
[9] = FP DNA binding, maximum concentration 2000 μM, read-out: IC50 ERG Auto-inhibited construct
[10] = optimized fragment analogs, values in text, read-out: IC50

IC50 [1]: > 2 mM | IC50 [2]: > 4.5 mM | IC50 [3, 9]: 0.588 mM | IC50 [4]: > 2 mM | IC50 [5]: > 2 mM | IC50 [6]: > 2 mM | IC50 [7]: > 4 mM
Molecule: Cc1ccc(OCC(=O)Nc2cccc(O)c2)cc1 [Compound 6H6]

IC50 [1]: > 2 mM | IC50 [2]: > 2.1 mM | IC50 [3, 9]: 0.965 mM | IC50 [4]: > 2.5 mM | IC50 [5]: 1.83 mM | IC50 [6]: > 4.1 mM | IC50 [7]: > 2 mM
Molecule: Nc1ccc(Cl)c(-c2nc3ccccc3o2)c1 [Compound 9B5]

IC50 [1]: > 2 mM | IC50 [2]: > 2 mM | IC50 [4]: > 2 mM | IC50 [5]: > 2 mM | IC50 [6]: > 2 mM | IC50 [7]: > 2 mM
Molecule: COc1cccc2cc(C(C)=O)oc12 [Compound 9F1]

IC50 [1]: > 2 mM | IC50 [2]: > 2 mM | IC50 [3, 10]: 0.099 mM | IC50 [4]: > 7.8 mM | IC50 [5]: > 2 mM | IC50 [6]: > 5.7 mM | IC50 [7]: > 2 mM
Molecule: COc1ccc(-c2c(C(C)=O)oc3c(OC)cccc23)cc1 [KK-16-69]

IC50 [3, 10]: 0.063 mM
Molecule: Cc1ccc(-c2nc3ccccc3o2)cc1C [KK-19-109]

IC50 [1]: > 3 mM | IC50 [2]: > 4.75 mM | IC50 [3, 10]: 0.088 mM | IC50 [4]: > 2 mM | IC50 [5]: > 2 mM | IC50 [6]: > 2 mM | IC50 [7]: > 3.6 mM
Molecule: COc1cc(OCC(=O)Nc2cccc(O)c2)ccc1C [KK-22-93]

B1: 272-412: ERG truncation construct, residues 272-412 (protein, UniProt P11308 272-412, looked up, fragment)
chain: AAQPSPSTVPKTEDQRPQLDPYQILGPTSSRLANPGSGQIQLWQFLLELLSDSSNSSCITWEGTNGEFKMTDPDEVARRWGERKSKPNMNYDKLSRALRYYYDKNIMTKVHGKRYAYKFDFHGIAQALQPHPPESSLYKYP
Kd [8]: 0.000101 mM
